Test results: US8158779B2, “Antiviral nucleosides” (Medivir AB, priority 2006, dated 2012)

Legend:
HCV Pol = biological target: T1, HCV Pol (Hepatitis C virus genotype 1b, UniProt Q9WMX2); assay: Renilla luciferase HCV replicon assay; format: cell-based
T1 construct: expressed in transfected cells

[1] = test system: Renilla luciferase HCV replicon cells (2209-23)
in vitro = conditions: human
[2] = test system: human primary hepatocytes; assay: Intracellular triphosphate concentration and half life; format: in vitro ADME; conditions: 2 μM
Protocol: The putative active species of the compounds of the invention is β-D-2′-deoxy-2′-β-C-methyl-4′-azidocytidine triphosphate. The stability of the triphosphate is determined in fresh human primary hepatocytes (CellzDirect or In Vitro Technologies) pre-incubated with tritiated parent compound. The hepatocytes are cultured on 6 well collagen coated plates (BD Biosciences), typically at 1.5 million cells/well using complete serum-containing medium (CellzDirect or In Vitro Technologies)/37° C./5% CO2. Various hepatocyte strains are available, such as Hu497, MHL-091806 and Hu504 and it is therefore useful to test such strains in parallel and calculate mean values from a range of strains.
The pre-incubation is typically for 24 hours with 2 μM of the tritiated parent at 10 μC/ml. […] The concentration of intracellular triphosphate is quantified at different time points up to 72 hours. […]
At the appropriate timepoint, cells are harvested by aspirating the cell culture medium and washing the cells with cold PBS. […] The parent and intracellular metabolites are identified by comparison of the retention times of the intracellular species in the radiochromatogram with the retention of non-radioactive reference standards spiked in the cell extract samples and detected by UV absorption, typically at 270 nm […]

T1 sequence (Q9WMX2 2420-3010): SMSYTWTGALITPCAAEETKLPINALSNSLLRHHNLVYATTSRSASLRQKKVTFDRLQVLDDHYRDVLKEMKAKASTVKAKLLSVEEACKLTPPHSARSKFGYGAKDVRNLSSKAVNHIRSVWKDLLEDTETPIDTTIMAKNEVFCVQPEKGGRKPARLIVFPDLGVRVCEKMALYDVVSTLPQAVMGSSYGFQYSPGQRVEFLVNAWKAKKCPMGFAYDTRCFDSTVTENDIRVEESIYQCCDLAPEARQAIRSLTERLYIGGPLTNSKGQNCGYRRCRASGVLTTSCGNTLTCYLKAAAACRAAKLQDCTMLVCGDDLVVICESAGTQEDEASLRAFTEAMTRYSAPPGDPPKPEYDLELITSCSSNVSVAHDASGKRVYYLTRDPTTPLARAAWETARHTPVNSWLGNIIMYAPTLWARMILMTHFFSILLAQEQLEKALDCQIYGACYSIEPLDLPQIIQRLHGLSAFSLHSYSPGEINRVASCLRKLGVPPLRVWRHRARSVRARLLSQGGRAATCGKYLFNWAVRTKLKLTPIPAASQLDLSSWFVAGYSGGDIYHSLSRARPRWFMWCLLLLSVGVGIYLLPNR

SMILES | activity in cell based replicon assay for HCV polymerase activity (in words) (HCV Pol) | inhibition at 100 µM (HCV Pol; 100 μM, cell based replicon assay, read-out: Maximum % Inhibition HCV Pol (100 μM)) [%] | cytotoxicity in the replicon assay (in words) [1] | cytotoxicity at 100 µM (in vitro) [%] | steady state triphosphate level at 24 hours [2] [pM/million cells]
CC1C(n2ccc(N)nc2=O)OC(CO)(N=[N+]=[N-])C1O (centres unmarked) [Compound 22, 4-Amino-1-(5-azido-4-hydroxy-5-hydroxymethyl-3-methyl-tetrahydro-furan-2-yl)-1H-pyrimidin-2-one] | good activity | 98.6 | low levels of cytoxicity | 9.48 | –
C[C@@]1(F)[C@H](O)[C@@H](CO)O[C@H]1n1ccc(N)nc1=O [PSI-6130, β-D-2′-deoxy-2′-fluoro-2′-β-C-methylcytidine] | – | – | – | – | 1.3
